Results reported in US20220213126A1, “SMALL MOLECULE AUTOPHAGY INDUCERS FOR THE TREATMENT OF CANCER AND NEURODEGENERATIVE DISEASES” (John Wayne Cancer Institute, priority 2019, published 2022).
Several values for one entry are separate records, joined by “and”; a condition that tells them apart may be missing. Equal values may be shown once. Read-outs that look alike come from different tables or passages of the source.

Tests used:
ATM and ULK1 = experiment: Cell viability assays with siRNA knock down of binding proteins; assay type: cell-based; conditions: preliminary
Description: To identify the functional target of VMY-BC-1, preliminary cell viability assays were carried out using siRNA to knock down each of the 10 identified binding proteins. […] Considering that that low ULK1 expression is associated with TNBC disease progression (Tang et al., Breast Cancer Res. Treat. 134:549-560, 2012) and autophagy controls the level of various DNA repair and checkpoint proteins in the DNA damage response pathway (Czarny et al., Int. J. Mol. Sci. 16:2641-2662, 2015; Gomes et al., Int. J. Mol. Sci. 18:2351, 2017), ULK1 activity in response to VMY-BC-1 was investigated. Protein extracts were made from MDA-MB-231 cells treated with vehicle control, VMY-BC-1 (10 μM), and Rapamycin (200 nM) at different time points.

LogD octanol-water = assay type: physicochemical; conditions: pH 7.4, read-out: LogD (octanol-water partition coefficient), pH 7.4
Description: Moreover, PK studies of RSV in humans conclude that even high concentration of RSV might be insufficient to achieve in vivo concentrations required for the systemic prevention of cancer. Therefore, in vitro ADME assays were carried out to assess VMY-BC-1 and to identify properties for further optimization.

[1] = Stability in simulated gastric fluid; assay type: physicochemical
[2] = Metabolic stability in human liver microsomes; assay type: in vitro ADME; conditions: for microsomal CLint: human, human liver microsomes
CYP2C19 = molecular target: T1, CYP2C19 (Homo sapiens, UniProt P33261); experiment: CYP inhibition in pooled human liver microsomes; assay type: in vitro ADME
T1 construct: from tissue; host or cells: pooled human liver microsomes

CYP2D6 = molecular target: T2, CYP2D6 (Homo sapiens, UniProt P10635); experiment: CYP inhibition in pooled human liver microsomes; assay type: in vitro ADME
T2 construct: from tissue; host or cells: pooled human liver microsomes

CYP3A4 = molecular target: T3, CYP3A4 (Homo sapiens, UniProt P08684); experiment: CYP inhibition in pooled human liver microsomes; assay type: in vitro ADME
T3 construct: from tissue; host or cells: pooled human liver microsomes

U87 MG tumor xenografts = experiment: U87 GBM tumor xenograft efficacy; assay type: in vivo, SCID mice
Description: To evaluate the anti-tumor efficacy of VMY-BC-1 in vivo, GBM tumor xenografts were established in the flanks of SCID mice. 5×10^6 U87 MG (ATCC HTB-14™) cells in 1×HBSS with 1:1 Matrigel® were implanted subcutaneously in the flank of 5-6 week old female SCID mice (C.B-lgh-1b/GbmsTac-Prkdc^scid-Lyst^bg N7; Taconic Biosciences, India). Mice (n=8) were treated with vehicle (2% (v/v) Tween® 80+98% (v/v) of 0.5% (w/v) hydroxypropyl methylcellulose (HPMC) in water) or VMY-BC-1 75 mg/kg PO daily for 14 days. The dose volume was 10 mL/kg. Tumor volume, tumor growth inhibition (TGI), body weight, and clinical signs were monitored as described in Example 5.

[3] = tested on: polyQ-expressing C. elegans; experiment: PolyQ aggregation in C. elegans Huntington's disease model; assay type: in vivo; conditions: 1 μM, 72 hours
Description: Synchronized populations of polyQ-expressing C. elegans were grown for 72 hours on media containing 1 μM VMY-BC-1. PolyQ aggegrative vacuoles were detected using confocal microscopy. PolyQ aggregations were decreased compared to vehicle (DMSO) (FIG. 21A). Synchronized populations of wild-type worms were grown on media containing VMY-BC-1 from 0.1 to 10 μM.

[4] = Pharmacokinetics of BC-2 and BC-3 in mouse plasma and brain; assay type: in vivo, mice; conditions: mouse, in vivo, po, 5 mg/kg
Description: Pharmacokinetics were assessed in mice administered a single oral dose of 5 mg/kg of the indicated compound (Tables 9 and 10).

[5] = Pharmacokinetics of BC-4 and BC-5 in mouse plasma and brain; assay type: in vivo; conditions: Balb/c mice, single oral dose 5 mg/kg; for Cmax: read-out: Cmax; for Tmax: read-out: Tmax (converted); for half-life: read-out: T½
Description: Pharmacokinetics of BC-4 and BC-5 were compared to BC-1. Pharmacokinetics were assessed in Balb/c mice administered a single oral dose of 5 mg/kg of the indicated compound (Tables 11 and 12).

[6] = mouse, brain, read-out: Brain level, Mean (4) ± SE
[7] = mouse, plasma, read-out: Plasma level, Mean (4) ± SE

T3 sequence (P08684 2-503): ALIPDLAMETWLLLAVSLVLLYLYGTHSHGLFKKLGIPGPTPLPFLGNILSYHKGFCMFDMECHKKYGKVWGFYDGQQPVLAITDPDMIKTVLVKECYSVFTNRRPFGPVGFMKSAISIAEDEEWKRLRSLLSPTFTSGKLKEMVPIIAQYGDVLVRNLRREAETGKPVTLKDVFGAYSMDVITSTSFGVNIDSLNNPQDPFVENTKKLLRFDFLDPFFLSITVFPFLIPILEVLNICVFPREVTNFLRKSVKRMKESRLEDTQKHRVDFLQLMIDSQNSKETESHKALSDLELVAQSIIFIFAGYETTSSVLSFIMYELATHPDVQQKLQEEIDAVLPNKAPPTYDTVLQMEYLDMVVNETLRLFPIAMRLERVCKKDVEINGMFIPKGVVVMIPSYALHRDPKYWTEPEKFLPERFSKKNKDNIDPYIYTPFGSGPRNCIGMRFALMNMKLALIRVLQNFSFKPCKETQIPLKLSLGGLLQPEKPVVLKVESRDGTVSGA
T1 sequence (P33261 whole entry): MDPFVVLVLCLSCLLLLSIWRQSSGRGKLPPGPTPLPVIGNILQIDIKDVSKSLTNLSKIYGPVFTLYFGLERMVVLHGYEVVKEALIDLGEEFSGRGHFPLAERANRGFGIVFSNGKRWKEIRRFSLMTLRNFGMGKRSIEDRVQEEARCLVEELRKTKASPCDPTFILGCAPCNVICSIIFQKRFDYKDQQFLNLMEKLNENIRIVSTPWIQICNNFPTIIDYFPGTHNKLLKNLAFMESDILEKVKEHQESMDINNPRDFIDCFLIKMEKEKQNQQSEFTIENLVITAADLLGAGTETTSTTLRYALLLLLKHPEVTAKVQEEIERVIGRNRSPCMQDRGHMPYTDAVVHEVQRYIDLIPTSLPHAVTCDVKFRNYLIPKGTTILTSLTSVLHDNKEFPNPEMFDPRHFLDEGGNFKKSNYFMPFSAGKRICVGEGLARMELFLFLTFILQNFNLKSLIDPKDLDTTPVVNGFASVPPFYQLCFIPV
T2 sequence (P10635 whole entry): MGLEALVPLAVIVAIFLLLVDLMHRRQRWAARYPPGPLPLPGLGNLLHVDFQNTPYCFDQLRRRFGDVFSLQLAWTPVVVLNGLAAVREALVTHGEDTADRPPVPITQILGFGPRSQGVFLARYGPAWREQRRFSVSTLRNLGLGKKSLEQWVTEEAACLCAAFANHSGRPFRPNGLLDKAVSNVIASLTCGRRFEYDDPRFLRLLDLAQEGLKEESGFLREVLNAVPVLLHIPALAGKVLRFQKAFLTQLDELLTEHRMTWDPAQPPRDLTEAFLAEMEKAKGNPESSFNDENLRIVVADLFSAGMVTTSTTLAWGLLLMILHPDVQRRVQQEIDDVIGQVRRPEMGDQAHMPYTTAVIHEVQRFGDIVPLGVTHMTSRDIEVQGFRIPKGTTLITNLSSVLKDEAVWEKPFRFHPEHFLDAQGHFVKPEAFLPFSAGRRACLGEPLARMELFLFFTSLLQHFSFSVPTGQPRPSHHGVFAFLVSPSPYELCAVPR

## COc1ccc(/C=C/c2cc(OC)cc(B(O)O)c2)cc1 [VMY-BC-1]
ATM and ULK1
  Effect of knock down of ATM and ULK1 on functional activity: abrogated the functional activity
LogD octanol-water
  logD: 3.37
[1]
  Stability in simulated gastric fluid: stable
[1]; pH 1.2
  Stability in simulated gastric fluid, pH 1.2: 87.81% remaining
[2]; 30 min incubation
  Remaining at the end of incubation in human liver microsomes: 40%
[2]; Table 3, read-out: Metabolic stability in human liver microsome (CLint)
  microsomal CLint: 41.3 µL/min/mg
[2]; read-out: Intrinsic clearance in human liver microsomes
  microsomal CLint: 43 µL/min/mg
CYP2C19
  IC50: 95.7 µM
CYP2D6
  IC50: > 100 µM
CYP3A4; read-out: IC50 CYP 3A
  IC50: 70 to 100 µM
CYP3A4; read-out: IC50 inhibition of CYP3A4MD2
  IC50: > 100 µM
CYP3A4; read-out: IC50 inhibition of CYP3A4TST
  IC50: > 100 µM
U87 MG tumor xenografts; 75 mg/kg once daily oral, 14 days
  Treatment-related adverse effects (body weight and clinical signs): No treatment-related adverse effects were observed
U87 MG tumor xenografts; 75 mg/kg once daily oral, end of 2 weeks
  Tumor growth inhibition: 32%
U87 MG tumor xenografts; U87 xenograft mice, 75 mg/kg
  Drug levels in tumor vs plasma: higher VMY-BC-1 drug levels in tumor than in plasma
U87 MG tumor xenografts; tumor tissue, 75 mg/kg
  Apoptosis by TUNEL staining: significant increase in apoptosis
  Reduction in Ki67 proliferation marker vs control: 51%
[3]
  PolyQ aggregations vs vehicle (DMSO): decreased
[4]
  AUC(0-inf): 865 ng·h/mL
  AUC(inf): 149000 ng·min/mL
  Cmax: 578 ng/mL and 1560 ng/g
  Concentration in brain vs plasma: higher concentration in brain than in plasma
  Tmax: 30 min
  concentration at 30 min: 578 ng/mL and 1560 ng/g
  concentration at 60 min: 470 ng/mL and 1400 ng/g
  concentration at 180 min: 60 ng/mL and 169 ng/g
[4]; Tmax
  Tmax: 30 min
[4]; T½
  half-life: 44 min
[5]; 0 min
  Brain level, Mean (4) ± SE: BQL
  Plasma level, Mean (4) ± SE: BQL
[5]; 360 min
  Brain level, Mean (4) ± SE: BQL
  Plasma level, Mean (4) ± SE: BQL
[5]; 900 min
  Brain level, Mean (4) ± SE: BQL
  Plasma level, Mean (4) ± SE: BQL
[5]; 1440 min
  Brain level, Mean (4) ± SE: BQL
  Plasma level, Mean (4) ± SE: BQL
[5]; Brain
  terminal elimination rate constant (lambda z): 0.0156 min⁻¹
[5]; Plasma
  terminal elimination rate constant (lambda z): 0.0157 min⁻¹
[5]; [6]
  concentration at 30 min: 1560 ± 237 ng/g
  concentration at 60 min: 1400 ± 211 ng/g
  concentration at 180 min: 169 ± 58 ng/g
[5]; [7]
  concentration at 30 min: 578 ± 55 ng/mL
  concentration at 60 min: 470 ± 61 ng/mL
  concentration at 180 min: 60 ± 48 ng/mL
[5]; mouse, Brain
  Cmax: 1560 ng/g
  Tmax: 30 min
  half-life: 44.3 min
[5]; mouse, Plasma
  AUC(0-inf): 865 ng·h/mL
  Cmax: 578 ng/mL
  Tmax: 30 min
  half-life: 44 min
[5]; mouse, Plasma, read-out: AUC(0-t) (converted)
  AUC(0-t): 803 ng·h/mL
